Entries after “also recorded” stand apart in the source; their conditions may differ.

The results in this text go back to patent US9415107B2, “Compositions and methods for the treatment of addiction and other neuropsychiatric disorders” (priority 2005, dated 2016).

For data set [1], the system named is adult male Wistar rats. Description: Intravenous cocaine self-administration under a multiple, alternating schedule of food reinforcement and cocaine self-administration. The note with it: for cocaine self-administration (number of infusions): ip pretreatment; for cocaine self-administration: pretreatment with the drug alone, general statement. Format: in vivo, rat.
Description: Adult male Wistar rats were trained under a multiple, alternating schedule of cocaine and food self-administration. This schedule consisted of alternating periods of cocaine access and food reinforcement. In some instances, as described further below, three doses of cocaine (0.125, 0.25, or 0.50 mg/kg/infusion) were tested. Rats were also periodically trained with saline substitution (cocaine extinction) and food extinction during the same session.
More specifically, adult male Wistar rats were implanted with chronic jugular catheters. Following recovery from surgery, the rats were trained to respond under a multiple, alternating schedule of food reinforcement and cocaine self-administration. Food-maintained responding was used to control for the non-specific motor effects of the various treatments. During the food component of the schedule, the stimulus light located above the food response lever was illuminated to indicate the availability of food reinforcement. […] A 25-second timeout followed the delivery of each food pellet. During this timeout, the stimulus light was darkened and responses on the food lever were counted but had no scheduled consequences. Responding on the other (cocaine) lever during the food component also had no scheduled consequences. […] Following 15 minutes of access to food, all stimulus lights in the chamber were darkened for a 1-minute timeout. Following the timeout, the stimulus light above the cocaine response lever was illuminated to indicate the availability of cocaine (0.125, 0.25, or 0.5 mg/kg/infusion). […] A 20-second timeout period followed each infusion. […] After 15 minutes of access to cocaine and a 1-minute timeout, the rats were again allowed 15 minutes access to the food component of the schedule. Access to food and cocaine alternated in this manner every 15 minutes during the two hour behavioral sessions so that each rat was exposed to food and cocaine for four 15-minute periods each. Each behavioral session began with 15 minutes access to either food or cocaine, and this alternated daily. Stable baselines of responding were established when the total number of cocaine and food presentations, as well as the number of presentations during each of the four exposures each session, varied less than 10% for three consecutive sessions. At least three different doses of cocaine (e.g., 0.125, 0.25, and 0.5 mg/kg/infusion) were tested. Rats were first trained to self-administer 0.25 mg/kg/infusion, our standard dose of cocaine. When responding stabilized, the dose was changed to 0.125 or 0.5 mg/kg/infusion as appropriate.
Once stable baselines of responding were obtained, dose-response curves for the various compounds were individually generated for each rat. Rats were treated with each dose at least twice with a minimum of two days of baseline cocaine self-administration interspersed between each test. Each group of rats was tested with only two of the test compounds to minimize potential carryover effects. […] This rationale guided the selection of the doses of each of the compounds in the combination studies. Each experimental group consisted of between 8 and 10 rats.

The test system of data set [2] is adult male Wistar rats. The experiment in a line: Cue-induced reinstatement of extinguished cocaine seeking (model of relapse). The format is in vivo, rat. The note with it: for reinstatement of extinguished cocaine seeking: pretreatment with the drug alone, general statement. An excerpt: In our model, rats were exposed to alternating 15-minute periods of access to cocaine self-administration and food reinforcement. Food was used to control for potential nonspecific, ataxis effects of the drugs and combinations. […] The other preclinical model we used is the cue-induced reinstatement of extinguished cocaine seeking model of relapse. In this model, rats are trained to self-administer cocaine and the ability of conditioned cues in the environment to reinstate extinguished responding is assessed and taken as a measure of relapse.
The experiments described herein were designed to investigate whether or not drug combinations identified as effective in reducing cocaine self-administration would also block the ability of conditioned cues to reinstate extinguished cocaine-seeking behavior. Adult male Wistar rats were implanted with chronic jugular catheters and trained to self-administer cocaine (0.25 mg/kg/infusion) by pressing one of the response levers in the experimental chamber (i.e., the “active” or “cocaine” lever) under a fixed-ratio four (FR4) schedule of reinforcement during daily 2-hour sessions conducted 5 days per week. At the start of each session, both levers were extended into the chamber and the stimulus light above the active lever was illuminated to indicate the availability of cocaine. […] A 20-second timeout period followed each infusion. The stimulus light above the active lever and the house light and tone compound stimulus were extinguished during the timeout period, and the light above the active lever was illuminated once the timeout ended. When responding on the active lever varied less than 20% for two consecutive days, the response requirement was increased to FR2. When similar stability was observed under the FR2 schedule or reinforcement, the response requirement was increased to the final ratio of four. The criteria for stable responding under the FR4 schedule of reinforcement was a minimum of 10 days of exposure to this schedule that concluded with at least three consecutive days when responding varied by less than 10%. […] Once stable cocaine self-administration was observed, rats were exposed to extinction; the rats were placed into the behavioral chambers, but responding on the “cocaine” (active) lever produced no programmed consequences. Extinction training continued until responding decreased to less than 20% of baseline self-administration. Then reinstatement testing commended. The rats were placed into the experimental chambers, both response levers were extended into the chamber, and the stimulus light above the “active” lever was illuminated as during self-administration training. […] Responding on the “active” lever during reinstatement testing was taken as an index of cocaine-seeking behavior. Each experimental group consisted of 8 to 10 rats.

The next data set deals with male Wistar rats. The experiment in a line: Forced Swim Test (FST), animal model of depression.
A further data set relates to plasma corticosterone. Description: Plasma corticosterone after metyrapone pretreatment. The conditions noted are these: pretreatment with metyrapone.
A short description of data set [3]: Pharmacokinetic interaction between cocaine, metyrapone and oxazepam (plasma concentrations by GCMS). The conditions noted are these: presence of iv cocaine. The method, then: Adult male Wistar rats (90 to 120 days old) were implanted with chronic, indwelling jugular catheters and were allowed to recover from surgery. […] Thirty minutes following the drug combination or vehicle injection, the rats received intravenous injections of cocaine (0.25 mg/kg/infusion) every 2 minutes for 1 hour. After the final injection of cocaine, blood was collected from the catheter for the analysis of cocaine and its metabolites ecgonine methyl ester and benzoylecgonine. […] All drug concentrations were determined using GCMS procedures.

The mark [4] stands for this setting: low, ineffective dose of the drug alone.

For `CC(C)(C(=O)c1cccnc1)c1cccnc1` [metyrapone], the “cocaine self-administration (number of infusions)” value is listed as “reduced cocaine self-administration” in the data set with adult male Wistar rats [1] (high dose of the drug alone) and “did not significantly affect cocaine self-administration; also recorded: no longer affected cocaine self-administration” in the data set with adult male Wistar rats [1] (setting [4]). Further, the cocaine self-administration entry in the data set on adult male Wistar rats [1] is “decrease; also recorded: significant dose-related decreases”. Also, the “cocaine seeking (responding on the active lever during reinstatement)” value in the data set on adult male Wistar rats [2] (chronic metyrapone 50 mg/kg, ip, once per day for 14 days) is “reduced cocaine seeking to levels seen when only saline was delivered”. In the data set on adult male Wistar rats [2], the “reinstatement of extinguished cocaine seeking” value was “decrease”. Moreover, the “immobility time in the FST” value in the data set on male Wistar rats (chronic administration, Met50 group (metyrapone 50 mg/kg alone)) was “showed a lessening of immobility time”. Also, in the data set with male Wistar rats (chronically treated groups that received only Ox or Met), the “mean immobility time relative to vehicle (tolerance)” value is listed as “equal to or exceeded the vehicle”. Further, in the data set on plasma corticosterone, the plasma corticosterone result is “significant dose-related decreases”.
As to `CCCCN(CC)c1nc(C)nc2c1c(C)cn2-c1c(C)cc(C)cc1C` [CP-154,526], the “cocaine self-administration (number of infusions)” value in the data set on adult male Wistar rats [1] (high dose of the drug alone) is reported as “reduced cocaine self-administration”; in the data set with adult male Wistar rats [1] (setting [4]), “did not significantly affect cocaine self-administration”. Further, the cocaine self-administration entry in the data set on adult male Wistar rats [1] is on record as “decrease”. Also, the “reinstatement of extinguished cocaine seeking” value in the data set with adult male Wistar rats [2] is reported as “decrease”.
Turning to `NCc1cc(=O)[nH]o1` [muscimol], the entries for the “cocaine self-administration (number of infusions)” value with adult male Wistar rats [1] (high dose of the drug alone) and in the data set with adult male Wistar rats [1] (setting [4]) were “reduced cocaine self-administration” and “did not significantly affect cocaine self-administration”, respectively.
For `COC(=O)[C@H]1[C@@H](OC(=O)c2ccccc2)C[C@@H]2CC[C@H]1N2C` [cocaine], the “effect on plasma concentrations of metyrapone or oxazepam” value in data set [3] was “did not affect”.
Take `Cc1nnc2n1-c1ccc(Cl)cc1C(c1ccccc1)=NC2` [alprazolam]: the “cocaine self-administration (number of infusions)” value in the data set with adult male Wistar rats [1] (high dose of the drug alone) is on record as “reduced cocaine self-administration”; in the data set on adult male Wistar rats [1] (setting [4]) it was “did not significantly affect cocaine self-administration”. The cocaine self-administration entry in the data set on adult male Wistar rats [1] is listed as “decrease”. Moreover, the “reinstatement of extinguished cocaine seeking” value in the data set with adult male Wistar rats [2] was “decrease”.
Turning to `CC(=O)N1CCN(c2ccc(OCC3COC(Cn4ccnc4)(c4ccc(Cl)cc4Cl)O3)cc2)CC1` (centres unmarked) [ketoconazole], the “minimally effective dose that reduced cocaine self-administration by at least 50% without affecting food-maintained responding” value in the data set with adult male Wistar rats [1] (drug alone) came out at 25 mg/kg. For the same compound, the “cocaine self-administration (number of infusions)” value in the data set with adult male Wistar rats [1] (setting [4]) is “no effect; also recorded: did not significantly affect cocaine self-administration”. Further, in the data set on adult male Wistar rats [1], the cocaine self-administration result is reported as “decrease”. The “reinstatement of extinguished cocaine seeking” value in the data set on adult male Wistar rats [2] is listed as “decrease”.
